# Laboratory results as given in patent US11912714B2, “Spiropyrrolidine derived antiviral agents” (ENANTA PHARMACEUTICALS, INC., priority 2021, dated 2024).
# Molecular target: SARS-CoV-2 3CL-protease (Severe acute respiratory syndrome coronavirus 2 (2019-nCoV) (SARS-CoV-2), UniProt P0DTD1)
# Assay: SARS-CoV-2 3C-like (3CL) protease fluorescence assay (FRET)
# Assay type: biochemical
# Settings: recombinant SARS-CoV-2 3CL-protease 10 nM, 30 min preincubation, peptide substrate, duplicate
row,Compound,IC50 [µM]
1,"CC(C)C[C@H](C(=O)Nc1cc(F)cc(F)c1)C(=O)N(C)[C@@H](CC(C)C)C(=O)N1C[C@]2(C[C@H]1C#N)C(=O)Nc1ccccc12 (single isomer, unassigned) [Compound 4]",< 0.1
2,CC(C)C[C@@H](C(=O)N1C[C@]2(C[C@H]1C#N)C(=O)Nc1ccccc12)N(C)C(=O)CC(=O)Nc1ccc(F)cc1F [Compound 1],< 0.1
3,CC(C)CC(C(=O)Nc1cc(F)cc(F)c1)C(=O)N(C)[C@@H](CC(C)C)C(=O)N1C[C@]2(C[C@H]1C(N)=O)C(=O)Nc1ccccc12 (stereo partly shown) [Compound 2],< 0.1
4,CC(C)C[C@@H](C(=O)N1C[C@]2(C[C@H]1C#N)C(=O)Nc1ccccc12)N(C)C(=O)CC(=O)OC(C)(C)C [Compound 5],< 0.1
5,CC(C)C[C@@H](C(=O)N1C[C@]2(C[C@H]1C#N)C(=O)Nc1ccccc12)N(C)C(=O)CC(=O)c1cc2c(F)cc(F)cc2[nH]1 [Compound 6],< 0.1
6,CC(C)C[C@@H](C(=O)N1C[C@]2(C[C@H]1C#N)C(=O)Nc1ccccc12)N(C)C(=O)C(C)(C)C(=O)O [Compound 7],> 1
7,CC(C)C[C@@H](C(=O)N1C[C@]2(C[C@H]1C#N)C(=O)Nc1ccccc12)N(C)C(=O)C(C)(C)C(=O)Nc1cc(F)ccc1F [Compound 8],0.1 to 1
8,Cc1cccc(C)c1NC(=O)C(C)(C)C(=O)N(C)[C@@H](CC(C)C)C(=O)N1C[C@]2(C[C@H]1C#N)C(=O)Nc1ccccc12 [Compound 9],0.1 to 1
9,Cc1cccc(C)c1NC(=O)CC(=O)N(C)[C@@H](CC(C)C)C(=O)N1C[C@]2(C[C@H]1C#N)C(=O)Nc1ccccc12 [Compound 10],< 0.1
10,CC(C)(C)C[C@H](NC(=O)C(C)(C)C(=O)Nc1cc(F)ccc1F)C(=O)N1C[C@]2(C[C@H]1C#N)C(=O)Nc1ccccc12 [Compound 11],< 0.1
11,Cc1cccc(C)c1NC(=O)C(C)(C)C(=O)N[C@@H](CC(C)(C)C)C(=O)N1C[C@]2(C[C@H]1C#N)C(=O)Nc1ccccc12 [Compound 12],< 0.1
12,Cc1cccc(C)c1NS(=O)(=O)CC(=O)N(C)[C@@H](CC(C)C)C(=O)N1C[C@]2(C[C@H]1C#N)C(=O)Nc1ccccc12 [Compound 13],< 0.1
13,Cc1cccc(C)c1NC(=O)CS(=O)(=O)N(C)[C@@H](CC(C)(C)C)C(=O)N1C[C@]2(C[C@H]1C#N)C(=O)Nc1ccccc12 [Compound 14],< 0.1
14,CC(C)C[C@@H](C(=O)N1C[C@]2(C[C@H]1C#N)C(=O)Nc1ccccc12)N(C)C(=O)CC(=O)NCC(C)(C)O [Compound 15],< 0.1
15,CC(C)C[C@@H](C(=O)N1C[C@]2(C[C@H]1C#N)C(=O)Nc1ccccc12)N(C)C(=O)CC(=O)Nc1ccccc1 [Compound 16],< 0.1
16,CC(C)C[C@@H](C(=O)N1C[C@]2(C[C@H]1C#N)C(=O)Nc1ccccc12)N(C)C(=O)CC(=O)NCc1ccccc1 [Compound 17],< 0.1
17,CC(C)C[C@@H](C(=O)N1C[C@]2(C[C@H]1C#N)C(=O)Nc1ccccc12)N(C)C(=O)CC(=O)N[C@H](C)c1ccccc1 [Compound 18],< 0.1
18,CC(C)C[C@@H](C(=O)N1C[C@]2(C[C@H]1C#N)C(=O)Nc1ccccc12)N(C)C(=O)CC(=O)Nc1cccc2ccccc12 [Compound 19],< 0.1
19,CC(C)C[C@@H](C(=O)N1C[C@]2(C[C@H]1C#N)C(=O)Nc1ccccc12)N(C)C(=O)CC(=O)N[C@@H](C)c1ccccc1 [Compound 20],0.1 to 1
20,CC(C)C[C@@H](C(=O)N1C[C@]2(C[C@H]1C#N)C(=O)Nc1ccccc12)N(C)C(=O)CC(=O)Nc1ccccn1 [Compound 21],< 0.1
21,CC(C)C[C@@H](C(=O)N1C[C@]2(C[C@H]1C#N)C(=O)Nc1ccccc12)N(C)C(=O)CC(=O)Nc1cccnc1 [Compound 22],< 0.1
22,CC(C)C[C@@H](C(=O)N1C[C@]2(C[C@H]1C#N)C(=O)Nc1ccccc12)N(C)C(=O)CC(=O)Nc1ccncc1 [Compound 23],< 0.1
23,CC(C)C[C@@H](C(=O)N1C[C@]2(C[C@H]1C#N)C(=O)Nc1ccccc12)N(C)C(=O)CC(=O)Nc1ccccc1F [Compound 24],< 0.1
24,CC(C)C[C@@H](C(=O)N1C[C@]2(C[C@H]1C#N)C(=O)Nc1ccccc12)N(C)C(=O)CC(=O)Nc1cccc(F)c1 [Compound 25],< 0.1

row,Compound,IC50 [µM]
1,CC(C)C[C@@H](C(=O)N1C[C@]2(C[C@H]1C#N)C(=O)Nc1ccccc12)N(C)C(=O)CC(=O)Nc1ccc(F)cc1 [Compound 26],< 0.1
2,CC(C)C[C@@H](C(=O)N1C[C@]2(C[C@H]1C#N)C(=O)Nc1ccccc12)N(C)C(=O)CC(=O)Nc1cn[nH]c1 [Compound 27],< 0.1
3,Cc1cccc(C)c1NC(=O)C1(C(=O)N[C@@H](CC(C)(C)C)C(=O)N2C[C@]3(C[C@H]2C#N)C(=O)Nc2ccccc23)CC1 [Compound 29],< 0.1
4,Cc1cccc(C)c1NC(=O)C1(C(=O)N[C@@H](CC(C)C)C(=O)N2C[C@]3(C[C@H]2C#N)C(=O)Nc2ccccc23)CCCC1 [Compound 30],< 0.1
5,CC(C)C[C@@H](C(=O)N1C[C@]2(C[C@H]1C#N)C(=O)Nc1ccccc12)N(C)C(=O)CC(=O)NC[C@H](C)O [Compound 31],< 0.1
6,CC(C)C[C@@H](C(=O)N1C[C@]2(C[C@H]1C#N)C(=O)Nc1ccccc12)N(C)C(=O)CC(=O)NC[C@@H](C)O [Compound 32],< 0.1
7,CC(C)C[C@@H](C(=O)N1C[C@]2(C[C@H]1C#N)C(=O)Nc1ccccc12)N(C)C(=O)CC(=O)N[C@H](C)CO [Compound 33],< 0.1
8,CC(C)C[C@@H](C(=O)N1C[C@]2(C[C@H]1C#N)C(=O)Nc1ccccc12)N(C)C(=O)CC(=O)N[C@@H](C)CO [Compound 34],< 0.1
9,CC(C)C[C@@H](C(=O)N1C[C@]2(C[C@H]1C#N)C(=O)Nc1ccccc12)N(C)C(=O)CC(=O)NCC(F)F [Compound 35],< 0.1
10,CC(C)C[C@@H](C(=O)N1C[C@]2(C[C@H]1C#N)C(=O)Nc1ccccc12)N(C)C(=O)CC(=O)N[C@@H]1CCN(C(=O)OC(C)(C)C)C1 [Compound 36],0.1 to 1
11,CC(C)C[C@@H](C(=O)N1C[C@]2(C[C@H]1C#N)C(=O)Nc1ccccc12)N(C)C(=O)CC(=O)N[C@H]1CCN(C(=O)OC(C)(C)C)C1 [Compound 37],< 0.1
12,Cc1cccc(C)c1NC(=O)C1(C(=O)N[C@@H](CC(C)C)C(=O)N2C[C@]3(C[C@H]2C#N)C(=O)Nc2ccccc23)CCOCC1 [Compound 38],< 0.1
13,CC(C)C[C@H](NC(=O)C1(C(=O)NCC(C)(C)O)CCC1)C(=O)N1C[C@]2(C[C@H]1C#N)C(=O)Nc1ccccc12 [Compound 39],< 0.1
14,Cc1cccc(C)c1NC(=O)C1(C(=O)N[C@@H](CC(C)(C)C)C(=O)N2C[C@]3(C[C@H]2C#N)C(=O)Nc2ccccc23)CCOCC1 [Compound 40],< 0.1
15,CC(C)C[C@@H](C(=O)N1C[C@]2(C[C@H]1C#N)C(=O)Nc1ccccc12)N(C)C(=O)CC(=O)N[C@@H]1CCC[C@@H]1O [Compound 41],< 0.1
16,CC(C)C[C@@H](C(=O)N1C[C@]2(C[C@H]1C#N)C(=O)Nc1ccccc12)N(C)C(=O)CC(=O)N[C@H]1CCC[C@@H]1O [Compound 42],< 0.1
17,CC(C)C[C@@H](C(=O)N1C[C@]2(C[C@H]1C#N)C(=O)Nc1ccccc12)N(C)C(=O)CC(=O)N[C@@H]1CCC[C@H]1O [Compound 43],< 0.1
18,CC(C)C[C@@H](C(=O)N1C[C@]2(C[C@H]1C#N)C(=O)Nc1ccccc12)N(C)C(=O)CC(=O)N[C@H]1CCC[C@H]1O [Compound 44],< 0.1
19,CC(C)C[C@@H](C(=O)N1C[C@]2(C[C@H]1C#N)C(=O)Nc1ccccc12)N(C)C(=O)CC(=O)N[C@@H]1CC[C@H](O)C1 [Compound 45],< 0.1
20,CC(C)C[C@@H](C(=O)N1C[C@]2(C[C@H]1C#N)C(=O)Nc1ccccc12)N(C)C(=O)CC(=O)N[C@H]1CC[C@H](O)C1 [Compound 46],< 0.1
21,CC(C)C[C@@H](C(=O)N1C[C@]2(C[C@H]1C#N)C(=O)Nc1ccccc12)N(C)C(=O)CC(=O)N[C@@H]1CC[C@@H](O)C1 [Compound 47],< 0.1
22,CC(C)C[C@@H](C(=O)N1C[C@]2(C[C@H]1C#N)C(=O)Nc1ccccc12)N(C)C(=O)CC(=O)N[C@H]1CC[C@@H](O)C1 [Compound 48],< 0.1
23,CC(C)C[C@@H](C(=O)N1C[C@]2(C[C@H]1C#N)C(=O)Nc1ccccc12)N(C)C(=O)CC(=O)N[C@@H](C)C(F)(F)F [Compound 49],< 0.1
24,CC(C)C[C@@H](C(=O)N1C[C@]2(C[C@H]1C#N)C(=O)Nc1ccccc12)N(C)C(=O)CC(=O)N[C@H](C)C(F)(F)F [Compound 50],< 0.1

# Tested on: 229E human corona virus (hCoV)
# Assay: 229E live virus assay (CPE, ATPlite) in MRC-5 cells
# Assay type: cell-based, hCoV-229E
# Settings: Human coronavirus 229E, MRC5, 144 h, read-out: 229E EC50
row,Compound,EC50 [µM]
1,"CC(C)C[C@H](C(=O)Nc1cc(F)cc(F)c1)C(=O)N(C)[C@@H](CC(C)C)C(=O)N1C[C@]2(C[C@H]1C#N)C(=O)Nc1ccccc12 (single isomer, unassigned) [Compound 4]",< 0.1
2,CC(C)C[C@@H](C(=O)Nc1cc(F)cc(F)c1)C(=O)N(C)[C@@H](CC(C)C)C(=O)N1C[C@]2(C[C@H]1C#N)C(=O)Nc1ccccc12 [Compound 3],0.1 to 1

# Same assay, conditions: Human coronavirus 229E, MRC5, 144 h; MRC-5 cells, MOI 0.05, 6 days at 34° C., ATPlite readout, duplicate; read-out: 229E EC50
row,Compound,EC50 [µM]
1,CC(C)C[C@@H](C(=O)N1C[C@]2(C[C@H]1C#N)C(=O)Nc1ccccc12)N(C)C(=O)CC(=O)Nc1ccc(F)cc1F [Compound 1],< 0.1
2,CC(C)CC(C(=O)Nc1cc(F)cc(F)c1)C(=O)N(C)[C@@H](CC(C)C)C(=O)N1C[C@]2(C[C@H]1C(N)=O)C(=O)Nc1ccccc12 (stereo partly shown) [Compound 2],0.1 to 1
3,CC(C)C[C@@H](C(=O)N1C[C@]2(C[C@H]1C#N)C(=O)Nc1ccccc12)N(C)C(=O)CC(=O)OC(C)(C)C [Compound 5],< 0.1
4,CC(C)C[C@@H](C(=O)N1C[C@]2(C[C@H]1C#N)C(=O)Nc1ccccc12)N(C)C(=O)CC(=O)c1cc2c(F)cc(F)cc2[nH]1 [Compound 6],< 0.1
5,CC(C)(C)C[C@H](NC(=O)C(C)(C)C(=O)Nc1cc(F)ccc1F)C(=O)N1C[C@]2(C[C@H]1C#N)C(=O)Nc1ccccc12 [Compound 11],0.1 to 1
